The record followed here is ChEMBL document CHEMBL3046817, “The synthesis and investigation of the antimicrobial activity of some new phenylselanyl-1-(toluene-4-sulfonyl)-1H-tetrazole derivatives” (2009).

Assay [1] relates to Pseudomonas aeruginosa. Briefly: Antimicrobial activity against Pseudomonas aeruginosa ATCC 27853 at 25 ug/disk measured after overnight incubation by disk diffusion method. The format is functional. Background: Agar diffusion results depend on both activity and mobility in agar.
The subject of assay [2] is Escherichia coli. Briefly: Antimicrobial activity against Escherichia coli ATCC 11230 at 25 ug/disk measured after overnight incubation by disk diffusion method. It counts as functional. The note with it: read-out: IZ.
Assay [3] has as its system Staphylococcus aureus. Briefly: Antimicrobial activity against Staphylococcus aureus ATCC 25923 at 25 ug/disk measured after overnight incubation by disk diffusion method. The note with it: for zone of inhibition at 25 µg/disc: read-out: IZ. The format is functional.
In assay [4] the test system is Yersinia enterocolitica. The experiment in a line: Antimicrobial activity against Yersinia enterocolitica ATCC 1501 at 25 ug/disk measured after overnight incubation by disk diffusion method. The format is functional. Conditions: for zone of inhibition at 25 µg/disc: read-out: IZ.
The test system of assay [5] is Listeria monocytogenes. The experiment in a line: Antimicrobial activity against Listeria monocytogenes ATCC 7644 at 25 ug/disk measured after overnight incubation by disk diffusion method. It counts as functional.
The subject of assay [6] is Salmonella enteritidis. Briefly: Antimicrobial activity against Salmonella enterica subsp. enterica serovar Enteritidis ATCC 13076 at 25 ug/disk measured after overnight incubation by disk diffusion method. The note with it: read-out: IZ. It counts as functional.
For assay [7], the system named is Bacillus cereus. The experiment in a line: Antimicrobial activity against Bacillus cereus RSKK 863 at 25 ug/disk measured after overnight incubation by disk diffusion method. The note with it: for zone of inhibition at 25 µg/disc: read-out: IZ. It counts as functional.
For assay [8], the system named is Pseudomonas aeruginosa. Briefly: Antimicrobial activity against Pseudomonas aeruginosa ATCC 27853 measured after overnight incubation by disk diffusion method. It counts as functional.
Assay [9] relates to Yersinia enterocolitica. The experiment in a line: Antimicrobial activity against Yersinia enterocolitica ATCC 1501 measured after overnight incubation by disk diffusion method. The format is functional.
In assay [10] the test system is Staphylococcus aureus. The experiment in a line: Antimicrobial activity against Staphylococcus aureus ATCC 25923 measured after overnight incubation by disk diffusion method. The format is functional, organism-based.
Assay [11] deals with Listeria monocytogenes. The experiment in a line: Antimicrobial activity against Listeria monocytogenes ATCC 7644 measured after overnight incubation by disk diffusion method. The format is functional.
The test system of assay [12] is Salmonella enteritidis. The experiment in a line: Antimicrobial activity against Salmonella enterica subsp. enterica serovar Enteritidis ATCC 13076 measured after overnight incubation by disk diffusion method. The format is functional.
The test system of assay [13] is Bacillus cereus. Briefly: Antimicrobial activity against Bacillus cereus RSKK 863 measured after overnight incubation by disk diffusion method. The format is functional, organism-based.
The subject of assay [14] is Escherichia coli. Conditions: ATCC 11230.
Description: Antimicrobial activity against Escherichia coli ATCC 11230 measured after overnight incubation by disk diffusion method

The structures appear in SMILES notation. Activity calls are given as the source filed them. The calls are words filed in the database; no cut-off is given here.

Consider `Cc1ccc(S(=O)(=O)n2nnnc2[Se]c2ccc(Cl)cc2)cc1`, for which the “inhibition zone (IZ)” value with Pseudomonas aeruginosa [1], with Listeria monocytogenes [5] and in the assay with Bacillus cereus [7] was “inactive” in each case. In addition, the zone of inhibition at 25 µg/disc in the assay with Escherichia coli [2] amounted to 3.2 mm; in the assay on Staphylococcus aureus [3], 4.8 mm; with Yersinia enterocolitica [4], 3.4 mm; in the assay with Salmonella enteritidis [6], 7.8 mm.

In the case of `Cc1ccc(S(=O)(=O)n2nnnc2[Se]c2ccc(I)cc2)cc1`, the “inhibition zone (IZ)” value with Pseudomonas aeruginosa [1], in the assay with Yersinia enterocolitica [4], in the assay with Listeria monocytogenes [5] and in the assay with Bacillus cereus [7] was “inactive” throughout. The zone of inhibition at 25 µg/disc was found to be 3.2 mm in the assay on Escherichia coli [2], 8.2 mm in the assay on Staphylococcus aureus [3] and 5.8 mm in the assay on Salmonella enteritidis [6].

`Cc1ccc(S(=O)(=O)n2nnnc2[Se]c2ccccc2Cl)cc1`: the zone of inhibition at 25 µg/disc in the assay with Pseudomonas aeruginosa [1] (read-out: IZ) is 4.4 mm; with Escherichia coli [2], 7.4 mm; in the assay on Staphylococcus aureus [3], 4.2 mm; in the assay with Yersinia enterocolitica [4] it was 5.6 mm; with Salmonella enteritidis [6], 7 mm; in the assay on Bacillus cereus [7], 3.2 mm. Moreover, in the assay with Listeria monocytogenes [5], the “inhibition zone (IZ)” value was “inactive”.

For the molecule `Cc1ccc([Se]c2nnnn2S(=O)(=O)c2ccc(C)cc2)cc1`, the “inhibition zone (IZ)” value with Pseudomonas aeruginosa [1], in the assay on Staphylococcus aureus [3] and with Yersinia enterocolitica [4] was “inactive” in each case. For the same molecule, the zone of inhibition at 25 µg/disc with Escherichia coli [2] amounted to 4.6 mm; in the assay on Listeria monocytogenes [5] (read-out: IZ), 5 mm; in the assay with Salmonella enteritidis [6] it was 3.2 mm; in the assay with Bacillus cereus [7], 2.8 mm.

Regarding `Cc1cc(NS(=O)(=O)c2ccc(N)cc2)no1` [SULFAMETHOXAZOLE], the “inhibition zone (IZ)” value with Pseudomonas aeruginosa [8] is reported as 5.5 mm; in the assay with Listeria monocytogenes [11] it was 10.9 mm; in the assay on Salmonella enteritidis [12] it was 7.4 mm. The “inhibition zone (IZ)” value with Yersinia enterocolitica [9], in the assay on Staphylococcus aureus [10] and in the assay with Bacillus cereus [13] was “inactive” in each case.

As for `Cc1ccc(S(=O)(=O)n2nnnc2[Se]c2ccccc2C)cc1`, the “inhibition zone (IZ)” value in the assay with Pseudomonas aeruginosa [1], in the assay with Yersinia enterocolitica [4] and with Listeria monocytogenes [5] was “inactive” throughout. Further, the zone of inhibition at 25 µg/disc stood at 5.4 mm in the assay on Escherichia coli [2], 5.2 mm with Staphylococcus aureus [3], 2.8 mm in the assay with Salmonella enteritidis [6] and 4.4 mm with Bacillus cereus [7].

As to `Cc1ccnc(NS(=O)(=O)c2ccc(N)cc2)n1` [SULFAMERAZINE], the “inhibition zone (IZ)” value in the assay on Pseudomonas aeruginosa [8] worked out at 4.4 mm; in the assay on Yersinia enterocolitica [9], 6.1 mm; in the assay with Listeria monocytogenes [11], 5.1 mm; in the assay on Salmonella enteritidis [12] it was 6.6 mm. Besides, the “inhibition zone (IZ)” value with Staphylococcus aureus [10] and in the assay on Bacillus cereus [13] was “inactive” throughout. The IZ entry in the assay on Escherichia coli [14] was “inactive”.

Regarding `Cc1ccc(S(=O)(=O)n2nnnc2[Se]c2ccc(Br)cc2)cc1`, the “inhibition zone (IZ)” value with Pseudomonas aeruginosa [1], in the assay on Yersinia enterocolitica [4], in the assay on Listeria monocytogenes [5] and with Bacillus cereus [7] was “inactive” in each case. For the same molecule, the zone of inhibition at 25 µg/disc amounted to 5.4 mm with Escherichia coli [2], 6.2 mm in the assay on Staphylococcus aureus [3] and 8.2 mm in the assay with Salmonella enteritidis [6].
